In ChEMBL document CHEMBL5291721, “A preclinical secondary pharmacology resource illuminates target-adverse drug reaction associations of marketed drugs” (Nat Commun, 2023):

What was measured:
[1] = target: T1, Progesterone receptor (Homo sapiens, UniProt P06401)
T1 sequence (P06401 whole entry): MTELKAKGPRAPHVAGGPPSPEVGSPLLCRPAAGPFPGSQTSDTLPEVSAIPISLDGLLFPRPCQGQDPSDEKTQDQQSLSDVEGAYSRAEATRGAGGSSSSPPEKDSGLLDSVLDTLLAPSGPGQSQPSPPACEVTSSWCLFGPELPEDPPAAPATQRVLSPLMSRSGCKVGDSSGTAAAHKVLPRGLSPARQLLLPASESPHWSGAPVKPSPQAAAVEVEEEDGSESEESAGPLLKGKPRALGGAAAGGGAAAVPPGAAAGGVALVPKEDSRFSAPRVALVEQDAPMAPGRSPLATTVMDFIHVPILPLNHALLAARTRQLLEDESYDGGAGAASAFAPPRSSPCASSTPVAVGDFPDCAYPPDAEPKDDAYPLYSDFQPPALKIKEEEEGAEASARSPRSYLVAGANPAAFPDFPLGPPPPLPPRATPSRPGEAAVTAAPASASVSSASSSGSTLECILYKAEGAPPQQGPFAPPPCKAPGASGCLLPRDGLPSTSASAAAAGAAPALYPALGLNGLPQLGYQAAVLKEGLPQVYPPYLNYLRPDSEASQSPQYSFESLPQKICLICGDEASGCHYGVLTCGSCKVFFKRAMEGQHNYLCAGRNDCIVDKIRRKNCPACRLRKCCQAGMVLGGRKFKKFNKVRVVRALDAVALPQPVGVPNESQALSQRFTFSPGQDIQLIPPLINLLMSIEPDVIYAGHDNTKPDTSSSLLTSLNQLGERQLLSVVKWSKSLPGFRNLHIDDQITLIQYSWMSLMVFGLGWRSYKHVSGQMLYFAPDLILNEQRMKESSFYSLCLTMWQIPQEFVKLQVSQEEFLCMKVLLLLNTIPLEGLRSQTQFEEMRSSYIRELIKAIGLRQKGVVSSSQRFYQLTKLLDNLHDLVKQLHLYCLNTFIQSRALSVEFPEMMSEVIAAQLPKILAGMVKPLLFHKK

[2] = target: T2, Amine oxidase [flavin-containing] A (Homo sapiens, UniProt P21397); assay type: functional
T2 sequence (P21397 whole entry): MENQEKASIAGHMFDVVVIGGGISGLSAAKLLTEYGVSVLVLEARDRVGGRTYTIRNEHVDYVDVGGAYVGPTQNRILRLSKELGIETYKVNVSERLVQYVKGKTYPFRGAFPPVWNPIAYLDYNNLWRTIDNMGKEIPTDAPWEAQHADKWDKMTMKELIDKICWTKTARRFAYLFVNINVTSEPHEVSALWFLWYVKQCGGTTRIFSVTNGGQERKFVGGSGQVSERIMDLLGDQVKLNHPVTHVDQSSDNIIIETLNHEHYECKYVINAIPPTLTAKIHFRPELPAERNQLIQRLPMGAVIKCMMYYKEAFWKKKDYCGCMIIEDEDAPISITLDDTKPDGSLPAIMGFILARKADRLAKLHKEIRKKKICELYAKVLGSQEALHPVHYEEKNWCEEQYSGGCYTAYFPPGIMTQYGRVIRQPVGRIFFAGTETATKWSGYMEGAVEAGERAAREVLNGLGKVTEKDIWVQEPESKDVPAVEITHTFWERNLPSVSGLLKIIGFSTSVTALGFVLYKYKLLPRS

[3] = target: T3, Muscarinic acetylcholine receptor M1 (Homo sapiens, UniProt P11229); assay type: functional, cell-based
T3 sequence (P11229 whole entry): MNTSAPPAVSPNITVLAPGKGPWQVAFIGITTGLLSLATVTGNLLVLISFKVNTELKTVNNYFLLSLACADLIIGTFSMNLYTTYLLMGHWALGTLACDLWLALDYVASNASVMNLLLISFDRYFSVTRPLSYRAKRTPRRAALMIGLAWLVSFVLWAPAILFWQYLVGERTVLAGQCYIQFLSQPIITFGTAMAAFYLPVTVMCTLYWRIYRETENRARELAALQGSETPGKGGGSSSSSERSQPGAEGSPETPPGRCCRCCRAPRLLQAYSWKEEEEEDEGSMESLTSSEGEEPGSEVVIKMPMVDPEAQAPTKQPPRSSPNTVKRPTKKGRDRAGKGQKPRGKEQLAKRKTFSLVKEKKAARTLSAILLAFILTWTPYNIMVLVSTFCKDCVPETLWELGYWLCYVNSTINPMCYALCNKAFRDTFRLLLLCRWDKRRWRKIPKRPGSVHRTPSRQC

[4] = target: T4, Thromboxane A2 receptor (Homo sapiens, UniProt P21731); assay type: functional, cell-based
T4 sequence (P21731 whole entry): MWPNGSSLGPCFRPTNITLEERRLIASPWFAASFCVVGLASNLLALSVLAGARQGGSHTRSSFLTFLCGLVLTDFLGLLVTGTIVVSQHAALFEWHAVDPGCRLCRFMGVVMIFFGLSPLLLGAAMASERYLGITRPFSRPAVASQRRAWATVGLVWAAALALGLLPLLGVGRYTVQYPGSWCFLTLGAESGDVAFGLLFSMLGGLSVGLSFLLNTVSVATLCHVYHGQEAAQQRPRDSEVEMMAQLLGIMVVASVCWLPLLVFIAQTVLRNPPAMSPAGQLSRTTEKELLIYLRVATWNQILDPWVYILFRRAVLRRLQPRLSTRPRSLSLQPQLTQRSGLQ

[5] = target: Sodium-dependent serotonin transporter (Homo sapiens, UniProt P31645)
[6] = target: cGMP-inhibited 3',5'-cyclic phosphodiesterase 3A (Homo sapiens, UniProt Q14432); assay type: functional
[7] = target: 5-hydroxytryptamine receptor 2B (Homo sapiens, UniProt P41595); assay type: functional, cell-based
[8] = target: T5, Prostaglandin G/H synthase 1 (Homo sapiens, UniProt P23219); assay type: functional
[9] = target: Voltage-gated inwardly rectifying potassium channel KCNH2 (Homo sapiens, UniProt Q12809); assay type: functional; conditions: read-out: AC50
[10] = target: Histamine H3 receptor (Homo sapiens, UniProt Q9Y5N1)
[11] = target: Vascular endothelial growth factor receptor 2 (Homo sapiens, UniProt P35968); assay type: functional
[12] = target: D(3) dopamine receptor (Homo sapiens, UniProt P35462)
[13] = target: Acetylcholinesterase (Homo sapiens, UniProt P22303); assay type: functional
[14] = target: T5, Prostaglandin G/H synthase 1; assay type: functional; remark: listed apart in the source
[15] = target: Prothrombin (Homo sapiens, UniProt P00734); assay type: functional
Further: assay procedure not described here.

T5 sequence (P23219 whole entry): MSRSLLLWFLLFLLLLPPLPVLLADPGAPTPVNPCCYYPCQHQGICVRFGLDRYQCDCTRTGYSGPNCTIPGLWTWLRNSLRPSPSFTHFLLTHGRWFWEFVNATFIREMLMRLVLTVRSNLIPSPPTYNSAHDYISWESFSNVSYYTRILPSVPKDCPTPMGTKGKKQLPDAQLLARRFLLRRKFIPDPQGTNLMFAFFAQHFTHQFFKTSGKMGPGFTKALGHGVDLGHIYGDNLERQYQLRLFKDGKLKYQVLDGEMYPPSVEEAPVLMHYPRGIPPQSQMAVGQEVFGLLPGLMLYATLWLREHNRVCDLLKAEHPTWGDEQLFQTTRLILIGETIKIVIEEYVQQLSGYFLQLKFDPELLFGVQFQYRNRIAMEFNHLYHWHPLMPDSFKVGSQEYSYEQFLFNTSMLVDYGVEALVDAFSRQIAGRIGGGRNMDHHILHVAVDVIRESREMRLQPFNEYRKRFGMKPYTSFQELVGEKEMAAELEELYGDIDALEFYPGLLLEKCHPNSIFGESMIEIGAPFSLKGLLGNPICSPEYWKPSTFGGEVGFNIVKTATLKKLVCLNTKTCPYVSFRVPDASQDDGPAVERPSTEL
Sequence of Voltage-gated inwardly rectifying potassium channel KCNH2 (Q12809 whole entry): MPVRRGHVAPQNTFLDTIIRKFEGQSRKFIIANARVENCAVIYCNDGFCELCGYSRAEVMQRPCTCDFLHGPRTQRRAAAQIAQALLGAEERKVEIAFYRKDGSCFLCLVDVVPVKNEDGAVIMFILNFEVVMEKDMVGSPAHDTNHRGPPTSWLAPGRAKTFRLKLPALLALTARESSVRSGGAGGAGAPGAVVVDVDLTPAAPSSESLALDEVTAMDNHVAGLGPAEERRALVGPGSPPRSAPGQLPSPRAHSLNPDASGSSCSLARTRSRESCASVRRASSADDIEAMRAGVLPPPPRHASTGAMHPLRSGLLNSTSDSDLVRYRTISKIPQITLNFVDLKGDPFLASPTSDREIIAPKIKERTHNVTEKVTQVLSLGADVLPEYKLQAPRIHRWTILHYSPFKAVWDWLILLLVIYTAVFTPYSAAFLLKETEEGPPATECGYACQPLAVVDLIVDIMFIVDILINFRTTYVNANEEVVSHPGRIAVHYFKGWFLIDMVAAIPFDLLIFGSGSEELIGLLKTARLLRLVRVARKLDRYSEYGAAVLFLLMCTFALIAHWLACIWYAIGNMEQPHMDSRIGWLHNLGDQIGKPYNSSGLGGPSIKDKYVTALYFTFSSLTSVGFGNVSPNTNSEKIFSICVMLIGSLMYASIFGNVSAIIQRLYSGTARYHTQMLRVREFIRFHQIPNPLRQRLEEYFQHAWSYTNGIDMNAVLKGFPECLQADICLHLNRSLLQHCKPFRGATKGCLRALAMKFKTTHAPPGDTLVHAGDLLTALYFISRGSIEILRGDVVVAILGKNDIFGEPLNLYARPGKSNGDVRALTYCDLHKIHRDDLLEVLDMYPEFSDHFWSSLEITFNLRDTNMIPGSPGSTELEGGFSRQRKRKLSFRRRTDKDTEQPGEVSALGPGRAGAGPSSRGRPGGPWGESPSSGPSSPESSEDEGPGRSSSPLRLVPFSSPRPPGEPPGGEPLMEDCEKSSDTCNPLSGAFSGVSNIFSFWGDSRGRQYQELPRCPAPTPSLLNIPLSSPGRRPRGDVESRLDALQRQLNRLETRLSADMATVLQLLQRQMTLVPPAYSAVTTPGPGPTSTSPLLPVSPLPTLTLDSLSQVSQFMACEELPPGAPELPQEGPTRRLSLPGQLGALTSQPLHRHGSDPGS
Sequence of cGMP-inhibited 3',5'-cyclic phosphodiesterase 3A (Q14432 whole entry): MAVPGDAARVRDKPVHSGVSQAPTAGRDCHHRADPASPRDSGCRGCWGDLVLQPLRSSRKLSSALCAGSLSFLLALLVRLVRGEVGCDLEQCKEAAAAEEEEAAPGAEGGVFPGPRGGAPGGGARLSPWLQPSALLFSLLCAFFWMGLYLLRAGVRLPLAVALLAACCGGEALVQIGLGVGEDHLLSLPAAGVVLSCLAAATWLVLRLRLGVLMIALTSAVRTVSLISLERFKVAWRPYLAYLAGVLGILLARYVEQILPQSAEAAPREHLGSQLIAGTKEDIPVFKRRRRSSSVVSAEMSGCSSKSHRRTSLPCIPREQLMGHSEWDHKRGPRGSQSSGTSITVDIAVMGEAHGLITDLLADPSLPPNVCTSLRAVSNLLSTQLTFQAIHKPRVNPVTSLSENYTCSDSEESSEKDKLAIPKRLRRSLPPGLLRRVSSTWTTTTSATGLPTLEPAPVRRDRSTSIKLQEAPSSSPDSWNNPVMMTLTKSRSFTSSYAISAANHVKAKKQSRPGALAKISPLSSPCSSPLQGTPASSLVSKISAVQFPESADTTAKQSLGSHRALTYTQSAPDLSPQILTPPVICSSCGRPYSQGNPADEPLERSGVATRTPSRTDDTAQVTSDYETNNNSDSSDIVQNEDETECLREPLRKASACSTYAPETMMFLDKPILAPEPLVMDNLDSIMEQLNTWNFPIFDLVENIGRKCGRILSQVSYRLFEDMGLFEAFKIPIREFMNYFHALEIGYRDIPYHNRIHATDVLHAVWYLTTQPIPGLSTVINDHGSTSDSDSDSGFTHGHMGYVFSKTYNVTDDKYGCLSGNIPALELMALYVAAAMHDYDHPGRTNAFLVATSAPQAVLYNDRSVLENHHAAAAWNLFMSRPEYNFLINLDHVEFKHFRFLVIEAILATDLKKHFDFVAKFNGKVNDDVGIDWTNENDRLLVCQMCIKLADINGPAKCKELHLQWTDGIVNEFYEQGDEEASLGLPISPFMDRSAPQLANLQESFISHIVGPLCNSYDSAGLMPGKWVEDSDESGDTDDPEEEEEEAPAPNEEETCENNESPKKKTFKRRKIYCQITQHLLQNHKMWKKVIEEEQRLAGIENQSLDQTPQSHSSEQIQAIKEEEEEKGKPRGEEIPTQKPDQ
Sequence of Vascular endothelial growth factor receptor 2 (P35968 whole entry): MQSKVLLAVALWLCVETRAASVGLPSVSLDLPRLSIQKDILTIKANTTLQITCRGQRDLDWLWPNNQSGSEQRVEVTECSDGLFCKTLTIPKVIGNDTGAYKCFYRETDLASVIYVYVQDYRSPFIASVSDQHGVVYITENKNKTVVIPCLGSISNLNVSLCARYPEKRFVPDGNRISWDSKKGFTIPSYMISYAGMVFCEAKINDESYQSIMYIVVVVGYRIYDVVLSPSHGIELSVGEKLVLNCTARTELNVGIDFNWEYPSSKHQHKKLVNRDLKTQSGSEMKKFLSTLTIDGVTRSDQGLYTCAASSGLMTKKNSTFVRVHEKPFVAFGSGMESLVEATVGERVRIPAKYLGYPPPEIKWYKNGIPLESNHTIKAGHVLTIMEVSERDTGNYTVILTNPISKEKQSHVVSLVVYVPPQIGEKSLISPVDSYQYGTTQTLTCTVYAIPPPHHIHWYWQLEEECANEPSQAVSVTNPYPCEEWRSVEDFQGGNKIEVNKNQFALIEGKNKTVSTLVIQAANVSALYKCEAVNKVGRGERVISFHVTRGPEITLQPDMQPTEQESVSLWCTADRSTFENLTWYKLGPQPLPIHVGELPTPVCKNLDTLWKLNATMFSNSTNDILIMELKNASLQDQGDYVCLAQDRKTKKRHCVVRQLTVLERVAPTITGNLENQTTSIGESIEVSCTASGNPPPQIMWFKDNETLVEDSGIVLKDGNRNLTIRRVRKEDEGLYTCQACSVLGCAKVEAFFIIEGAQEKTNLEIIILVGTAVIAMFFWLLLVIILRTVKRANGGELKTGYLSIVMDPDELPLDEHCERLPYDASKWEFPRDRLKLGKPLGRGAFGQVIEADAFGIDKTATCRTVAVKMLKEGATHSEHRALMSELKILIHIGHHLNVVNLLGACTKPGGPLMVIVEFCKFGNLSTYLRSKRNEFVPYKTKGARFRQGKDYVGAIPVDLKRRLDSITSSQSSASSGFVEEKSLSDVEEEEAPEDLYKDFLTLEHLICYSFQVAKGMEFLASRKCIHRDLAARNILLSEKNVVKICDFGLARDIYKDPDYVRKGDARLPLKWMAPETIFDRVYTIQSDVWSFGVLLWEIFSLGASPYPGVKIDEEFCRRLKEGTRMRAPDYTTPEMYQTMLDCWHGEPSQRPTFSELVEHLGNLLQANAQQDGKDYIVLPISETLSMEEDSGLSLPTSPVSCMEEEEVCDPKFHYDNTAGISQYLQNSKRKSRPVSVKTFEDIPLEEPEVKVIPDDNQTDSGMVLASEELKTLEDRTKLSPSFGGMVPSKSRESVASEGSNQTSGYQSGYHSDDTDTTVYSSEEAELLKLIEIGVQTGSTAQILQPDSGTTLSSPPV
Sequence of Acetylcholinesterase (P22303 whole entry): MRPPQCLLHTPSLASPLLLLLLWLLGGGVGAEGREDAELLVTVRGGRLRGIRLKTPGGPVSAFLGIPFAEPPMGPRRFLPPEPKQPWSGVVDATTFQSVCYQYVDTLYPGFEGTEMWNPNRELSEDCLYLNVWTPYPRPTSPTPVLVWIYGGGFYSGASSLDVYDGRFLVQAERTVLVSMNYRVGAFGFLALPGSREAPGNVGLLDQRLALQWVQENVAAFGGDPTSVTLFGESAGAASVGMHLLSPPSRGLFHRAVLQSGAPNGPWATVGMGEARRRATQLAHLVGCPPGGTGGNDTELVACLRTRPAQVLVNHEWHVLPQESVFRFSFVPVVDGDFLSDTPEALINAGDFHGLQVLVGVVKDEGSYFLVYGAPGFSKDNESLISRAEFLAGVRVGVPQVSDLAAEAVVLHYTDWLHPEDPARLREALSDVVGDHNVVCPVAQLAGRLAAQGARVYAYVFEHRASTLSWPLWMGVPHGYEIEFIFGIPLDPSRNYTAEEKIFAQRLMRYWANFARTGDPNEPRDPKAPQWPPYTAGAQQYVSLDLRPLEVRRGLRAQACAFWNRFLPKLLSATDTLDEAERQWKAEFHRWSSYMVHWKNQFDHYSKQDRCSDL

SMILES	AC50 [1]	AC50 [2]	AC50 [3]	AC50 [4]	AC50 [5]	AC50 [6]	AC50 [7]	AC50 [8]	AC50 [9]	AC50 [10]	AC50 [11]	AC50 [12]	AC50 [13]	AC50 [14]	AC50 [15]
CC[C@@H](C(N)=O)N1CCCC1=O	> 30 µM	> 30 µM	> 30 µM	> 30 µM	> 30 µM	> 30 µM	> 30 µM	> 30 µM	> 30 µM	> 30 µM	> 30 µM	> 30 µM	> 30 µM	> 30 µM	> 30 µM
CCOC(=O)[C@H](CCc1ccccc1)N[C@@H](C)C(=O)N1CC2(C[C@H]1C(=O)O)SCCS2	> 30 µM	> 30 µM	> 30 µM	> 30 µM	> 30 µM	> 30 µM	> 30 µM	> 30 µM	> 30 µM	> 30 µM	> 10 µM	> 30 µM	> 30 µM	> 30 µM	> 30 µM
CC(=O)c1ccc2c(c1)N(CCCN(C)C)c1ccccc1S2 [ACEPROMAZINE]	> 30 µM	> 30 µM	0.151 µM	> 30 µM	0.145 µM	> 30 µM	> 30 µM	> 30 µM	2.5 µM	> 30 µM	> 30 µM	0.0087 µM	> 30 µM	> 30 µM	> 30 µM
Nc1ccncc1N [AMIFAMPRIDINE]	> 30 µM	> 30 µM	> 30 µM	> 30 µM	> 30 µM	> 30 µM	> 30 µM	> 30 µM	> 30 µM	> 30 µM	> 30 µM	> 30 µM	> 30 µM	> 30 µM	> 30 µM
CCC(C)(C)c1ccc(CC(C)CN2C[C@@H](C)O[C@@H](C)C2)cc1 (stereo not given in full) [AMOROLFINE]	> 30 µM	> 30 µM	10.8 µM	> 30 µM	> 30 µM	> 30 µM	> 30 µM	> 30 µM	11 µM	> 30 µM	> 30 µM	22 µM	> 30 µM	> 30 µM	> 30 µM
N=c1ccn2c(n1)O[C@H]1[C@H](O)[C@@H](CO)O[C@H]12 [ANCITABINE]	> 30 µM	> 30 µM	> 30 µM	> 30 µM	> 30 µM	> 30 µM	> 30 µM	> 30 µM	> 30 µM	> 30 µM	> 30 µM	> 30 µM	> 30 µM	> 30 µM	> 30 µM
